Measurements as given in patent publication US20060115458A1, “Material for repairing biological tissues, product for repairing biological tissues, and method of manufacturing material for repairing biological tissues” (OLYMPUS CORPORATION, priority 2004, published 2006).

Assays:
[1] = system: normal human osteoblast NHOst; test: Proliferation rate of osteoblasts cultured with metal salts (TetraColor ONE); assay type: cell-based; details: as concentration became higher; 2 weeks culture; control group = 100%; FIG. 1
Procedure: (§1) As a medium, α-MEM medium containing β-sodium glycerophosphate and fetal calf serum was used.
(§2) The cell culturing method was such that about 1×10^4 osteoblasts were seeded in each well in a collagen type I coated 24 well microplate. Then after 24 hours the product was replaced with 1 ml of medium containing a prescribed concentration of metal salts, after which it was further replaced with a medium containing the same concentration of metal salts three times per week, and the culturing was performed for 2 weeks.
The proliferation rate was measured as follows. 1 ml of medium containing 20 μl/ml of living cell measuring reagent, TetraColor ONE (Seikagaku Corporation) was added into each well. After 2 hours of culturing, the absorbency at 450 nm (control wavelength was 600 nm) was measured. The proliferation rate of the respective experimental groups was obtained assuming that the absorbancy of the control group was 100%.

[2] = system: normal human osteoblast NHOst; test: Differentiation rate of osteoblasts cultured with metal salts (calcium content per well); assay type: cell-based; details: as concentration became higher; 2 weeks culture; calcium content of control group = 100%; FIG. 2
Procedure: as §1, §2
The differentiation rate was measured as follows. 1 ml of 0.1N hydrochloric acid was added into each well and left at room temperature for 15 hours to obtain the hydrochloric acid extract of each well. Using calcium C-Test Wako (Wako Pure Chemical Industries, Ltd.), 10 μl of hydrochloric acid extract was added with 1 ml of 0.88 M monoethanolamine buffer (pH 11.0), then 100 μl of 0.63 mM ortho-cresolphthalein complexone and 100 μl of 69 mM 8-quinolinol. After 15 minutes of reaction at room temperature, the absorbancy at 570 nm was measured to determine the calcium content per well. The differentiation rate of the respective experimental groups was obtained assuming that the calcium content of the control group was 100%.

SMILES: [Cl][Nb]([Cl])([Cl])([Cl])[Cl] [niobium pentachloride]
- proliferation rate of osteoblasts [1]: increased the proliferation rate
- differentiation rate of osteoblasts [2]: increased the differentiation rate
